# Laboratory results: patent US20240391923A1, “METHIONINE ADENOSYLTRANSFERASE 2A INHIBITOR FOR TREATING MTAP DELETION-TYPE CANCER” (SUZHOU GENHOUSE BIO CO., LTD., priority 2022, published 2024)
# Like-named read-outs stand apart in the source and are kept apart here.
# Columns and labels:
# [1] = test system: SDMA in human colon cancer cell line HCT116; assay: Cell symmetric dimethylarginine (SDMA) test, In-cell Western, HCT116 (MTAP wild-type); assay type: cell-based; conditions: Homo sapiens, HCT-116, 96 h
# Description: MAT2A catalyzes the reaction of L-methionine and ATP to generate SAM, inorganic phosphonic acid, and inorganic diphosphonic acid. SAM is an important methyl donor, and is a substrate of arginine methyltransferase 5 (PRMT5). PRMT5 catalyzes SDMA modification of multiple proteins within a cell. The intracellular SDMA modification level was detected by ICW (In-cell Western), and the inhibition of the test compound on the enzymatic activity of intracellular MAT2A was indirectly reflected.
# In the present application, the human colon cancer cell line HCT116 and the corresponding HCT116-MTAP-knockout cell line were seeded into a 96-well cell culture plate at an appropriate cell density. After 24 h, the cells were treated using the test compounds diluted 1:4 fold at the highest concentration of 6 μM for 6 gradients, and a DMSO treatment group was set up separately. The cells were cultured in a 37° C./5% CO2 incubator for 4 days. To test the inhibitory activity of the test compounds against tumor cell SDMA, the medium was discarded, and the plate was washed 3 times with PBST. 4% paraformaldehyde was then used at room temperature for fixation for 20 min. The fixation solution was discarded, the plate was washed 3 times with PBST, and a special blocking solution was added to each well for blocking at room temperature for 2 h. The blocking solution was discarded. After the plate was washed 3 times with PBST, the plate was incubated with SDMA antibody at 4° C. overnight. The next day, the plate was washed 3 times with PBST. The secondary antibody and DRAQ5 were diluted to an appropriate concentration with the blocking solution, and incubated at room temperature for 2 h; the plate was washed 3 times with PBST, and the fluorescence signals at 700 nm and 800 nm were detected using a Li—COR Odyssey two-color near-infrared laser imager.
# The data was then processed. After the corresponding background value was subtracted from each well, statistical analysis was performed on the 800 nm/700 nm ratio for each well, a sigmoidal dose-inhibition curve was plotted using a non-linear regression model, and IC50 values were fitted and calculated. Inhibition Rate (%)=(1−SDMA dose/SDMA DMSO control)*100. SDMA dose is the value of the drug treatment group, and SDMA DMSO control is the value of the DMSO control group.
# [2] = biological target: MAT2A recombinant protein (Homo sapiens, UniProt P31153); assay: MAT2A inhibitory activity (malachite green colorimetric enzyme assay); assay type: biochemical
# Description: MAT2A catalyzes the reaction of L-methionine and ATP to generate S-adenosylmethionine (SAM), inorganic phosphonic acid, and inorganic diphosphonic acid. Malachite green reacts with inorganic phosphonic acid to generate a green product, and the enzyme activity of MAT2A can be indirectly reflected by detecting the content of the inorganic phosphonic acid in a sample.
# The test compounds were formulated using DMSO and diluted 1:3 diluted through 10 concentration points to give a final starting concentration in the reaction system of 1000 nM. The test compounds at different concentrations described above were transferred to a 384-well plate. Experimental buffer (50 mM HEPES pH 7.5, 50 mM KCl, 10 mM MgCl2, 10 mM DTT) was prepared. 2×MAT2A recombinant protein was prepared using the buffer and added to a 384-well plate. A mixed solution of 2×L-methionine and ATP was prepared using the buffer, and added to a 384-well plate. The enzymatic reaction was started, and the reaction was carried out at room temperature for 60 min. 20 μL of a colorimetric detection reagent was added to the above system, and incubated at room temperature for 15 min. The absorbance at 630 nm was measured. The inhibition rate of the compound on the enzyme activity was calculated, and the inhibition rate value and the logarithm value of the compound concentration were fitted using non-linear regression (dose response-variable slope) to give the IC50 value of the test compound.
# [3] = test system: SDMA in HCT116-MTAP-knockout cell line; assay: Cell symmetric dimethylarginine (SDMA) test, In-cell Western, HCT116-MTAP-knockout; assay type: cell-based; conditions: Homo sapiens, 96 h
# [4] = IC50 score class, read-out: Cell 96 h SDMA Inhibition (HCT116-MTAP+/+) (score)
# [5] = read-out: Cell 96 h SDMA inhibition (HCT116-MTAP+/+)
# [6] = IC50 score class, read-out: MAT2A Inhibition (score)
# [7] = IC50 score class, read-out: Cell 96 h SDMA Inhibition (HCT116-MTAP−/−) (score)
# [8] = read-out: Cell 96 h SDMA Inhibition (HCT116-MTAP−/−)
# MAT2A recombinant protein, sequence (P31153 whole entry): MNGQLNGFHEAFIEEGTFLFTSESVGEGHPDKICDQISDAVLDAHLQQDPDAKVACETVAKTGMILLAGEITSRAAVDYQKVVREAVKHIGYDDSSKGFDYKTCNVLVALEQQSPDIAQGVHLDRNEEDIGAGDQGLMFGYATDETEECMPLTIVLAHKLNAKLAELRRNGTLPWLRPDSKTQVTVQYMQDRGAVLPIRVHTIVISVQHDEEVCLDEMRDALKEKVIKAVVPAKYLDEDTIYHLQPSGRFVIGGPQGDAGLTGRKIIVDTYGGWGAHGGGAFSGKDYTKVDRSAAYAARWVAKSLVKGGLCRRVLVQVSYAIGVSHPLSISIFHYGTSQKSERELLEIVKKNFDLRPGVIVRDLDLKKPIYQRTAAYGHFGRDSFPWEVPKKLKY
SMILES,"IC50 [1, 4] [nM]","IC50 [1, 5] [nM]","IC50 [2, 6] [nM]",IC50 ([2]; read-out: MAT2A Inhibition) [nM],"IC50 [3, 7] [nM]","IC50 [3, 8] [nM]"
"O=c1c2nn(C(F)F)cc2c2cc(F)c(Cl)cc2n1-c1cccnc1C1CC1 (single isomer, unassigned) [Compound B399]",> 3000,> 10000,,,,
CCn1cc2c(n1)c(=O)n(-c1ccncc1)c1cc(Cl)ccc21 [Compound B10],,,> 1000,> 1000,,
CCn1cc2c(n1)c(=O)n(-c1ccc(OC)cc1)c1cc(Cl)ccc21 [Compound B11],,,> 1000,> 1000,,
CCn1cc2c(n1)c(=O)n(-c1cccc(C(F)(F)F)c1)c1cc(Cl)ccc21 [Compound B15],,,> 1000,> 1000,,
CCn1cc2c(n1)c(=O)n(-c1cccnc1)c1cc(OC(F)(F)F)ccc21 [Compound B19],,,100 to 1000,125,,
Cc1nnc2c(=O)n(-c3cccnc3)c3cc(Cl)ccc3n12 [Compound B23],,,100 to 1000,908,,
CCn1nc2c(=O)n(-c3cccnc3)c3cc(Cl)ccc3c2c1C(F)(F)F [Compound B24],,,100 to 1000,115,,
CCn1nc2c(=O)n(-c3cccnc3)c3cc(Cl)ccc3c2c1C(F)F [Compound B25],,,< 100,92.8,,
Cn1nc2c(=O)n(-c3cccnc3)c3cc(Cl)ccc3c2c1C(F)(F)F [Compound B26],,,100 to 1000,349,,
O=c1c2nccnc2c2ccc(Cl)cc2n1-c1cccnc1 [Compound B50],,,100 to 1000,488,,
Cc1ncccc1-n1c(=O)c2nn(C)cc2c2ccc(C3CC3)nc21 [Compound B75],200 to 1000,298,< 100,43.9,< 200,14.6
Cn1cc2c(n1)c(=O)n(-c1cccnc1)c1cc(OC(F)(F)F)ccc21 [Compound B78],1000 to 3000,2030,,,200 to 1000,813
Cn1cc2c(n1)c(=O)n([C@H]1CC[C@H](O)CC1)c1cc(Cl)ccc21 [Compound B109],,,100 to 1000,483,,
Cn1cc2c(n1)c(=O)n(Cc1ccn[nH]1)c1cc(Cl)ccc21 [Compound B117],,,< 100,41.9,,
Cn1cc2c(n1)c(=O)n(-c1cccnc1)c1cc(Cl)c(F)cc21 [Compound B139],> 3000,6800,< 100,37.4,200 to 1000,775
Cn1cc2c(n1)c(=O)n(-c1cccc(O)c1)c1cc(Cl)ccc21 [Compound B152],> 3000,17400,< 100,71.8,200 to 1000,228
Cn1ccc(Cn2ncc3c4ccc(Cl)cc4n(-c4cccnc4)c(=O)c32)n1 [Compound B168],,,< 100,99.2,,
Cn1cc2c(n1)c(=O)n(-c1cccc(O)c1)c1cc(OC(F)(F)F)ccc21 [Compound B169],,,< 100,97.4,,
O=c1c2c(cnn2CC(F)F)c2ccc(Cl)cc2n1-c1cccnc1 [Compound B170],,,100 to 1000,220,,
COc1cc2c3cn(C)nc3c(=O)n(-c3cccnc3)c2cc1Cl [Compound B171],> 3000,> 3000,< 100,61.8,200 to 1000,818
Cn1cc2c(n1)c(=O)n(-c1cccnc1)c1cc(Cl)cc(F)c21 [Compound B172],1000 to 3000,2210,< 100,68.1,200 to 1000,771
COc1cccc(-n2c(=O)c3nn(C)cc3c3ccc(C(F)(F)F)nc32)c1 [Compound B184],,,100 to 1000,174,,

SMILES,"IC50 [1, 4] [nM]","IC50 [1, 5] [nM]","IC50 [2, 6] [nM]",IC50 ([2]; read-out: MAT2A Inhibition) [nM],"IC50 [3, 7] [nM]","IC50 [3, 8] [nM]"
COc1ccc(-n2c(=O)c3nn(C)cc3c3ccc(Cl)cc32)cc1 [Compound B185],,,100 to 1000,379,,
Cn1cc2c(n1)c(=O)n(-c1ccc(OC(F)F)cc1)c1cc(Cl)ccc21 [Compound B186],,,100 to 1000,191,,
COc1ccc(-n2c(=O)c3nn(C)cc3c3ccc(C(F)(F)F)nc32)cc1 [Compound B187],,,100 to 1000,284,,
Cn1cc2c(n1)c(=O)n(-c1cccc(OC(F)F)c1)c1nc(C(F)(F)F)ccc21 [Compound B190],,,100 to 1000,133,,
Cn1cc2c(n1)c(=O)n(-c1cccc(C(F)F)c1)c1nc(C(F)(F)F)ccc21 [Compound B194],,,< 100,43.7,,
Cn1cc2c(n1)c(=O)n(-c1c(F)cccc1F)c1nc(C(F)(F)F)ccc21 [Compound B195],,,< 100,20,,
Cn1cc2c(n1)c(=O)n(Cc1cn[nH]c1)c1nc(C(F)(F)F)ccc21 [Compound B197],,,< 100,90.4,,
Cn1cc2c(n1)c(=O)n(-c1cncc(F)c1)c1nc(C(F)(F)F)ccc21 [Compound B202],> 3000,15300,< 100,49.9,1000 to 3000,1440
Cn1cc2c(n1)c(=O)n(-c1ccn3ccnc3c1)c1cc(Cl)ccc21 [Compound B205],,,< 100,71.1,,
Cn1cc2c(n1)c(=O)n(-c1ccc3ncoc3c1)c1cc(Cl)ccc21 [Compound B208],,,100 to 1000,178,,
Cn1cc2c(n1)c(=O)n(-c1ccc3ncoc3c1)c1nc(C(F)(F)F)ccc21 [Compound B209],,,100 to 1000,122,,
O=c1c2nn(C3CCOCC3)cc2c2ccc(C(F)(F)F)nc2n1-c1cccnc1 [Compound B210],,,100 to 1000,603,,
Cn1cc2c(n1)c(=O)n(-c1cccc(NS(C)(=O)=O)c1)c1nc(C(F)(F)F)ccc21 [Compound B214],,,< 100,14.9,,
Cn1cc2c(n1)c(=O)n([C@@H]1CCCOC1)c1cc(Cl)ccc21 [Compound B230],,,100 to 1000,237,,
COc1ccc(-n2cc3c(n2)c(=O)n(-c2ccccc2)c2nc(C(F)(F)F)ccc32)cn1 [Compound B231],,,< 100,39.9,,
Cn1cc2c(n1)c(=O)n(-c1cccc(C(N)=O)c1)c1nc(C(F)(F)F)ccc21 [Compound B234],> 3000,> 3000,< 100,25.5,1000 to 3000,1370
Cn1cc2c(n1)c(=O)n(-c1cccnc1)c1nc(Cl)ccc21 [Compound B244],,,< 100,102,,
N#Cc1cc2c3cn(C(F)F)nc3c(=O)n(-c3cccc4[nH]ncc34)c2cc1Cl [Compound B283],,,< 100,88,,
COc1ccc(Cn2cc3c(n2)c(=O)n(-c2cccc4[nH]ncc24)c2cc(Cl)c(C#N)cc32)cc1 [Compound B286],,,100 to 1000,188,,
O=c1c2nn(C(F)F)cc2c2cc(F)c(Cl)cc2n1-c1cccnc1C(F)(F)F [Compound B339],> 3000,> 10000,,,200 to 1000,203
Cn1cnc2c(=O)n(-c3cccc4ccccc34)c3cc(Cl)c(C#N)cc3c21 [Compound B378],,,> 1000,> 1000,,
Cn1cnc2c(=O)n(-c3cccc4cccnc34)c3cc(Cl)c(C#N)cc3c21 [Compound B379],,,> 1000,> 1000,,
